Reference: US8946217B2, “Pharmaceutical compounds” (F. Hoffman-La Roche AG, priority 2005, dated 2015)

Test system: Caco-2 cells
Assay: Caco-2 permeability
Format: in vitro ADME
Conditions: bidirectional Caco-2 assay
Experimental: Caco-2 cells were seeded onto Millipore Multiscreen plates at 1×10^5 cells/cm^2, and were cultured for 20 days. Assessment of compound permeability was subsequently conducted. The compounds were applied to the apical surface (A) of cell monolayers and compound permeation into the basolateral (B) compartment was measured. This was performed in the reverse direction (B-A) to investigate active transport. A permeability coefficient value, Papp, for each compound, a measure of the rate of permeation of the compound across the membrane, was calculated. Compounds were grouped into low (Papp</=[…]) or high (Papp>/=[…]) absorption potential based on comparison with control compounds with established human absorption.
For assessment of a compound's ability to undergo active efflux, the ratio of basolateral (B) to apical (A) transport compared with A to B was determined. Values of B-A/A-B>/=1.0 indicated the occurrence of active cellular efflux. All of the compounds tested through the Caco-2 permeability screen had Papp values >/=[…].

CN1CCN(Cc2cc3nc(-c4cccc(O)c4)nc(N4CCOCC4)c3s2)CC1 [PI540]
B-A/A-B asymmetry index: less than 1.0
